The record followed here is publication PMC13090440, “Targeting SARS-CoV-2 main protease (3CL^pro) with Paeonia-derived phytochemicals” (In Silico Pharmacology, 2026).

The target of the test is T1, SARS-CoV-2 3CL^pro (Severe acute respiratory syndrome coronavirus 2, UniProt P0DTD1).
T1 construct: gene rep
As to the kind of experiment: fluorogenic peptide cleavage assay, continuous. In kind it is biochemical.

In the case of `COc1c(-c2ccc(O)c(O)c2)oc2cc(O)cc(O)c2c1=O` [3-O-methylquercetin], the midpoint of inhibition, the IC50, lay at 43.9 µM.

The term IC50 denotes the point on the concentration scale where inhibition reaches its midpoint. Low readings indicate higher potency, high ones lower potency.
